Results: patent publication US10450549B2, “Aryloxyphenoxypropionate tolerance in turfrgass species and use of AAD1 as a selectable marker” (Dow AgroSciences, LLC, priority 2004, dated 2019)
Values joined by “and” are separate entries in the source; they are usually repeats but may differ in a detail not shown here. Equal entries are not always repeated.

Experiments:
AAD1 (v1) = target: T1, AAD1 (v1) (Sphingobium herbicidovorans, UniProt Q8KSC8); assay: Colorimetric phenol detection assay of AAD1 (v1) activity (purified enzyme or E. coli extract); format: biochemical; details: for A510, AAD1 / A510, AAD1 (10x): substrate 1 mM; for A510, AAD1: 1 μg purified AAD1 (v1) per 0.16 ml assay; for A510, AAD1 (10x): 10 μg purified AAD1 (v1) per 0.16 ml assay; for rate of product formation relative to 2,4-D / A510: 1 mM; for rate of product formation relative to 2,4-D: 27 μg crude recombinant AAD1 (v1) per assay; for A510 / % 2,4-D: Table 8; for A510: 27 μg crude recombinant AAD1 (v1) extract from E. coli; for % 2,4-D: relative to 2,4-D, crude AAD1 (v1) extract
T1 construct: made in house; host or cells: E. coli BL-21 Star (DE3), plasmid pDAB3203
T1 sequence (Q8KSC8 whole entry): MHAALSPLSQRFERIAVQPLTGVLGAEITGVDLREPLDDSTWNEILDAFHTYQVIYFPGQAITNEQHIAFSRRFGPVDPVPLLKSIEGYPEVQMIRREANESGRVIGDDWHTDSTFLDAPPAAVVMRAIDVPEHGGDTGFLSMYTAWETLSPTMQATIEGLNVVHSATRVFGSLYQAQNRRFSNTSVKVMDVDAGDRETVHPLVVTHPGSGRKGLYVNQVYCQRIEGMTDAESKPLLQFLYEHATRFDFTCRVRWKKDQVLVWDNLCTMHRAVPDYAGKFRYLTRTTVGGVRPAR

[1] = system: transformed-control line containing PAT and Cry1F; assay: Foliar-applied auxinic herbicides on control (PAT/Cry1F, wildtype) Arabidopsis, % injury 14 DAT; format: in vivo, Arabidopsis thaliana; details: PatCry1f - Control
Protocol: (§1) The ability of AAD1 (v3) to provide resistance to other aryloxyphenoxyalkanoate auxin herbicides in transgenic Arabidopsis was determined by foliar application of various substrates described in Example 6.8. T4 generation Arabidopsis seed, homozygous for AAD1 (v3) (line AAD1.01.315.076) was stratified, and sown into selection trays much like that of Arabidopsis (Example 6.4). A transformed-control line containing PAT and the insect resistance gene Cry1F was planted in a similar manner. Seedlings were transferred to individual 3-inch pots in the greenhouse. All plants were sprayed with the use of a track sprayer set at 187 L/ha. […] All applications were formulated in 200 mM Hepes buffer (pH 7.5). Each treatment was replicated 3-4 times. Plants were evaluated at 3 and 14 days after treatment and are averaged over two experiments.

[2] = system: T4 Arabidopsis homozygous for AAD1 (v3) (line AAD1.01.315.076); assay: Foliar-applied auxinic herbicides on homozygous T4 AAD1 (v3) Arabidopsis, % injury 14 DAT; format: in vivo, Arabidopsis thaliana; details: AAD1.01.315.076.T4 homozygous AAD1 plants
Protocol: as §1

Structure (SMILES)	A510, AAD1 (AAD1 (v1); Table 3, 15 min)	A510, AAD1 (10x) (AAD1 (v1); Table 3, 15 min)	A510, AAD1 (AAD1 (v1); Table 4)	A510, AAD1 (10x) (AAD1 (v1); Table 4)	other results
Nc1c(Cl)ccc(OCC(=O)O)c1Cl [compound 11263526]	0.004	0.069	–	–	–
CC(Oc1ccc(Oc2ccc(C(F)(F)F)cn2)cc1)C(=O)O (racemic) [(R,S)- fluazifop]	–	–	0.427	2.17	–
CC(Oc1cc(F)c(Cl)c(N)c1Cl)C(=O)O (racemic) [(R,S)-3-amino, 5-F-dichlorprop]	–	–	–	–	rate of product formation relative to 2,4-D (AAD1 (v1)): 125%; A510 (AAD1 (v1)): 0.221; % 2,4-D (AAD1 (v1)): 125%
O=S(=O)([O-])OCCOc1ccc(Cl)cc1Cl.[Na+] [sesone]	0.02	0.177	–	–	–
O=C(O)COc1cc(F)c(Cl)cc1Cl [5-F, 2,4-D]	–	–	–	–	rate of product formation relative to 2,4-D (AAD1 (v1)): 32%; A510 (AAD1 (v1)): 0.056; % 2,4-D (AAD1 (v1)): 32%
O=C(O)CCCOc1ccc(Cl)cc1Cl [compound 178577]	0.003	0.021	–	–	–
CC(Oc1ccc(Cl)c(N)c1Cl)C(=O)O (racemic) [(R,S)-3-aminodichlorpop]	0.228	2.676	–	–	fold better than 2,4-D as a substrate (AAD1 (v1); purified AAD1 (v1), Table 3 data, listed as 3-aminodichlorprop): ~7 fold and > 7 fold
CC(C)COC(=O)COc1ccc(Cl)cc1Cl [compound 190252]	0.008	0.211	–	–	–
CC(Oc1ccc(Oc2ncc(Cl)cc2Cl)cc1)C(=O)O (racemic) [(R,S)- chlorazifop]	–	–	0.128	1.584	–
O=C(O)COc1ccc(F)cc1Cl [compound 124988]	0.007	0.058	–	–	–
CC(Oc1ccc(Oc2nc3ccc(Cl)cc3s2)cc1)C(=O)O (racemic) [(R,S)- fenthiaprop]	–	–	0.199	1.055	–
CC(Oc1ccc(Oc2ncc(Cl)cc2F)cc1)C(=O)O (racemic) [(R,S)- clodinofop]	–	–	0.295	1.98	–
Oc1ccc(Cl)cc1Cl [2,4-DCP]	–	–	–	–	Ave % Injury 14DAT ([1]; 50 g ae/ha foliar): 0%; Ave % Injury 14DAT ([1]; 200 g ae/ha foliar): 0%; Ave % Injury 14DAT ([1]; 800 g ae/ha foliar): 0%; Ave % Injury 14DAT ([1]; 3200 g ae/ha foliar): 0%; Ave % Injury 14DAT ([2]; 50 g ae/ha foliar): 0%; Ave % Injury 14DAT ([2]; 200 g ae/ha foliar): 0%; Ave % Injury 14DAT ([2]; 800 g ae/ha foliar): 0%; Ave % Injury 14DAT ([2]; 3200 g ae/ha foliar): 0%
O=C(O)COc1ccc(Cl)c2cccnc12 [Cloquintocet]	–	–	0	0.001	activity of purified AAD1 (v1) on substrate (AAD1 (v1); 1 mM substrate, 1 or 10 μg enzyme): no activity
CCC(Oc1ccc(Cl)cc1Cl)C(N)=O (centres unmarked) [compound 192132]	0.064	0.204	–	–	–
CC(Oc1ccc(F)cc1Cl)C(=O)O (racemic) [(R,S)-2-chloro, 4-fluorophenoxy-proprionate]	0.304	2.358	–	–	–
CC(Oc1ccc(Oc2ncc(C(F)(F)F)cc2Cl)cc1F)C(=O)O (centres unmarked) [compound 25646]	–	–	0.144	1.69	–
